The values below come from patent publication US9968619B2, “Method of treating triple-negative breast cancer using thienotriazolodiazepine compounds” (ONCOETHIX GMBH, priority 2014, dated 2018).

Broadly, the GI50 is the concentration at which growth is held to half of that of the control.

Assay [1] deals with HCC1937. Description: Cell cycle after drug washout, HCC1937. To be noted: 650 nM for 72 h, then 48 h of drug washout. The format is cell-based, human. How it is done: (§1) Cells were staining with propidium iodide then analyzed using a FACScan flow cytometer. […] After 72 h of treatment, control and treated cells were washed with PBS and re-incubated with compound (1-1) free medium (drug washout). As show in FIG. 14A-14C, significant differences in the percentage of compound (1-1)-treated cells in the G1, S and G2/M phases with respect to untreated controls were determined by a one-way ANOVA test (p<0.001) followed by an SNK a posteriori test. After washout, significant differences in the percentage of cells in a given cell cycle phase between control and pre-treated cells were determined with the Student t-test for independent samples with equal or different variance, as appropriate. * , × and # means significant difference between treated cells respect and controls in G1 phase (*p<0.05, **p<0.01), G2/M phase (×p<0.05, ××p<0.01) and S phase p<0.05, ## p<0.01), respectively. Each bar and vertical line represents the mean±SEM, respectively (n≥3).

The subject of assay [2] is MDA-MB-468. Description: Cell cycle after drug washout, MDA-MB-468. The format is cell-based, human. Conditions: 650 nM for 72 h, then drug washout. The protocol:
as §1

Assay [3] deals with MDA-MB-468. Description: Western blotting and RT-PCR expression, MDA-MB-468. The format is cell-based, human. Conditions: 24, 48 and 72 h. An excerpt: (§2) Logarithmic transformation of the variable was applied before the ANOVA test if required. As shown in FIG. 16A-C, Western blots are representative of three independent experiments where each bar and vertical line represents the mean±SEM, respectively (n=3). As shown in FIG. 15D-15G, C-MYC protein and mRNA levels were unchanged by Compound (1-1) treatment in all the three cell lines.
(§3) CDKN1A (p21) mRNA levels were increased in all three cell models (p<0.001). […] Significant differences in the mRNA levels were determined by one-way ANOVA test (p<0.01) followed by SNK a posteriori test (*p<0.05, **p<0.01, […]). Logarithmic transformation of the variable was applied before the ANOVA test if required. Each bar and vertical line represents the mean±SEM, respectively (n=3). Western blots are representative of 3 independent experiments.
For orientation: A western blot detects proteins with antibodies after separation by electrophoresis.

Assay [4] relates to MDA-MB-468. Description: Cell counting proliferation, MDA-MB-468. Conditions: Homo sapiens. The format is cell-based.
The subject of assay [5] is HCC1937. Description: Western blotting and RT-PCR expression, HCC1937. It counts as cell-based, human. Conditions: 650 nM; 24, 48 and 72 h.
Excerpt: as §2, §3

[6] abbreviates: 650 nM, listed as compound (1-1), dihydrate.
Setting [7] is: MDA-MB-468, 48 h, 48 h exposure, normoxia.
Setting [8] is: MDA-MB-468, 72 h, 72 h exposure, hypoxia (0.1% O2).
The mark [9] stands for this setting: MDA-MB-468, 72 h, 72 h exposure, normoxia.

Each structure is given as a SMILES string. “Also recorded” adds a separate entry of the source. Bounds are passed on as bounds.

For `Cc1sc2c(c1C)C(c1ccc(Cl)cc1)=N[C@@H](CC(=O)Nc1ccc(O)cc1)c1nnc(C)n1-2` [Compound (1-1), 2-[(6S)-4-(4-chlorophenyl)-2,3,9-trimethyl-6H-thienol[3,2-f]-[1,2,4]triazolo[4,3-a][1,4]diazepin-6-yl]-N-(4-hydroxyphenyl)acetamide dihydrate], the “cell cycle pattern after drug washout” value in assay [1] is “recovered the control cell cycle pattern”; in assay [2], “substantial (p<0.05) accumulation of cells in G2/M phase”. In assay [3] (650 nM), the BRD2 levels result is on record as “increased”. Moreover, the “mRNA levels of BRD3” value in assay [3] (650 nM) and in assay [5] was “reduced” throughout. Moreover, in assay [3] (650 nM), the “mRNA levels of BRD4” value is on record as “downregulated”. Moreover, the “c-Myc expression (mRNA and protein)” value in assay [3] (650 nM, dihydrate) is given as “down-regulated”; in assay [3] (setting [6]), “downregulated; also recorded: downregulation”. For the same compound, the “mRNA levels of n-Myc” value in assay [3] (setting [6]) is on record as “downregulated; also recorded: downregulation”. Moreover, in assay [3] (RT-PCR, 500 nM), the “expression levels of c-MYC and n-MYC” value was “marked (p<0.05) reduction”. Besides, the Emax in assay [4] (MDA-MB-468, 48 h, 48 h exposure, hypoxia (0.1% O2)) turned out to be 50%; in assay [4] (setting [7]), 30%; in assay [4] (setting [8]), 71%; in assay [4] (setting [9]), 80%. In addition, the GI50 was 60.6 nM in assay [4] (MDA-MB-468, 48 h, 48 h exposure, hypoxia (0.1% O2), * = apparent value); more than 6000 nM in assay [4] (setting [7]); 251 nM in assay [4] (setting [8]); 304 nM in assay [4] (setting [9]).
